# According to paper PMC6264139, “Schiff Bases of Indoline-2,3-dione: Potential Novel Inhibitors of Mycobacterium Tuberculosis (Mtb) DNA Gyrase ^†” (Molecules, 2011):
# Where “and” joins values, the source holds several entries; their conditions need not be identical. Equal entries are not always repeated.
# Molecular target: Mtb DNA gyrase (Mycobacterium tuberculosis, UniProt P9WG45+P9WG47)
# Assay: Mtb DNA gyrase supercoiling inhibition assay
# Type: biochemical, Mycobacterium tuberculosis strain H37RV
# Settings: Mtb wt gyrase IC50, supercoiling of relaxed pBR322 DNA, 60 minutes at 37 °C, inhibitor 1.56 to 200 µM
# Protocol: Two-fold increases in inhibitor concentrations ranging from 1.56 to 200 µM were added to pBR322 relaxed DNA in the presence of Mtb DNA gyrase enzyme. Control lanes are: Lane 1, DNA with no enzyme or inhibitor and Lane 2, DNA with enzyme but no inhibitor. IC50 values were calculated by measurement of fluorescence intensity after ethidium bromide staining of the supercoiling band at the bottom of the lanes. […] (b) IC50 curves of supercoiling (SC) fluorescence data. DNA fluorescence was quantitated with an Alpha Imager 2200 Analysis System (Cell Biosciences, Santa Clara, CA, USA) and IC50 values were determined by nonlinear regression analysis with Graphpad Prism software (Graphpad Software, Inc., San Diego, CA, USA). IDV = Integrated Density Value.
# The isatin Schiff bases synthesized and characterized in this report were tested for their ability to inhibit supercoiling activity of DNA gyrase. DNA gyrase is the only enzyme known so far having the ability to introduce negative supercoils in DNA. In all the species of mycobacteria, including Mtb, DNA gyrase is the sole type II topoisomerase carrying out the reactions of both gyrase and topoisomerase IV. Since the DNA gyrase from Mtb and M. smegmatis are highly similar at a functional as well as a protein sequence level and antigenic properties, Mtb strain H37RV DNA gyrase has been used for carrying out the supercoiling assays.
# Relaxed pBR322 DNA (0.1 µg) was incubated with 1 unit of Mtb DNA gyrase for 60 minutes at 37 °C in the following buffer: 2 mM ATP, 4 mM DTT, 25 mM KCl, 6 mM magnesium acetate, 50 µg/mL of molecular grade BSA, 0.1 mg/mL E. coli tRNA, 2mM spermidine, 100 mM potassium glutamate and 40 mM Tris-HCL pH 7.5 (20 µL). Reactions are stopped with 0.5% SDS, 6 mM EDTA, 5.35% glycerol, and 0.013% bromophenol blue (10 µL). Reactions are then loaded onto a 1% agarose/ TBE gel to separate supercoiled and relaxed DNA forms and run overnight at 22 volts. Bands are visualized by staining with 0.5 µg/mL EtBr in 1 × TBE for 40 minutes then washing with dH2O for 120 minutes. Quantification is done on the AlphaImager 2200 system. DNA gyrase subunits, GyrA and GyrB, were isolated from Mtb strain H37RV genomic DNA, expressed and purified in pET overexpression constructs in E coli. One unit of DNA supercoiling activity is defined as the amount that converts ~50% relaxed DNA, in the standard assay, to supercoiled DNA in 60 minutes at 37 °C.
# Mtb DNA gyrase, sequence (P9WG45 whole entry): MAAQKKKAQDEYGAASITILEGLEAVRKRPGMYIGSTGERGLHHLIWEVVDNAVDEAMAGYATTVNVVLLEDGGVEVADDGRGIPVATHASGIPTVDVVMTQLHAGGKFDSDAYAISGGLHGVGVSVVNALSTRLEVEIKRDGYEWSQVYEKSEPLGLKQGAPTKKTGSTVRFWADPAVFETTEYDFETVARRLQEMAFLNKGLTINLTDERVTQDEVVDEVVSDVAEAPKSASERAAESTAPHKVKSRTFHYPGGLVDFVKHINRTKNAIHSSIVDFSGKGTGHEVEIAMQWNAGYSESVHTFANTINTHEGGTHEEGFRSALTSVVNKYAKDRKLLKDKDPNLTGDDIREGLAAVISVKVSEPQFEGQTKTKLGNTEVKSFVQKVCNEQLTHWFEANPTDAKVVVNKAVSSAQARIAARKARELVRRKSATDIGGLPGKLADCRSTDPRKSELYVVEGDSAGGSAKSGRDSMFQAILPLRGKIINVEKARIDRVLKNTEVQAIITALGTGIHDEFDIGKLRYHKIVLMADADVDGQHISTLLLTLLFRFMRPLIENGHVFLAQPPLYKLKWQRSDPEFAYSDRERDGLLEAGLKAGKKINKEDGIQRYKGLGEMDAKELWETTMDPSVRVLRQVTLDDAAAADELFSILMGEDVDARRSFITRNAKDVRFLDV
# Mtb DNA gyrase, sequence (P9WG47 whole entry): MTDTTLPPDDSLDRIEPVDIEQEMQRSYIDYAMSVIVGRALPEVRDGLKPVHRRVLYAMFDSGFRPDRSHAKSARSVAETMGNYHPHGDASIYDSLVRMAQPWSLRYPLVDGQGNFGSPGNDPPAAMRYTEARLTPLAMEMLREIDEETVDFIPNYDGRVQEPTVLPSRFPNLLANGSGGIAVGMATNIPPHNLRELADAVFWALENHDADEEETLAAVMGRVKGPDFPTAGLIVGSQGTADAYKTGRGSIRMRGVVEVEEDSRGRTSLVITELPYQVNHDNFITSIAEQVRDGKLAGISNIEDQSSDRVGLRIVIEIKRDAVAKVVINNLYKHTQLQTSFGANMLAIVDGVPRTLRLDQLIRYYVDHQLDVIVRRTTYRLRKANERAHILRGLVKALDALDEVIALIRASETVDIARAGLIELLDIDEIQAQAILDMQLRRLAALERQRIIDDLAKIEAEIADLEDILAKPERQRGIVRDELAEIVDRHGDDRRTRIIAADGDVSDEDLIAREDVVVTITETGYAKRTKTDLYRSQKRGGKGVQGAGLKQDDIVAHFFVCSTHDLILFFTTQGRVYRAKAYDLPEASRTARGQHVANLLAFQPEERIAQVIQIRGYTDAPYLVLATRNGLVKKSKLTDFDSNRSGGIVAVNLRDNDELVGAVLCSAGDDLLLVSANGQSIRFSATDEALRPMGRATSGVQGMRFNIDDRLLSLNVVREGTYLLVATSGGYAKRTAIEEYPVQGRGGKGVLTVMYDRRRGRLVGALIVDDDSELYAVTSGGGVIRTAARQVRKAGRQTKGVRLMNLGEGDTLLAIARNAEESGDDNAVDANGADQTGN
row,SMILES,IC50
1,"O=C1Nc2ccccc2/C1=N/NC(=O)c1ccncc1 [Compound 3, (Z)-N'-(2-Oxoindolin-3-ylidene)isonicotinohydrazide]",> 200 µM
2,"O=C1Nc2ccc(Cl)cc2/C1=N/NC(=O)c1ccncc1 [Compound 4, (Z)-N'-(5-Chloro-2-oxoindolin-3-ylidene)isonicotinohydrazide]",> 200 µM
3,"O=C1Nc2ccc(F)cc2/C1=N/NC(=O)c1ccncc1 [Compound 5, (Z)-N'-(5-Fluoro-2-oxoindolin-3-ylidene)isonicotinohydrazide]",> 200 µM
4,"Cc1ccc2c(c1)/C(=N/NC(=O)c1ccncc1)C(=O)N2 [Compound 6, (Z)-N'-(5-Methyl-2-oxoindolin-3-ylidene)isonicotinohydrazide]",> 200 µM
5,"O=C1Nc2ccc(OC(F)(F)F)cc2/C1=N/NC(=O)c1ccncc1 [Compound 7, (Z)-N'-(2-Oxo-5-(trifluoromethoxy)indolin-3-ylidene)isonicotinohydrazide]",> 200 µM
6,"O=C1Nc2ccc([N+](=O)[O-])cc2/C1=N/NC(=O)c1ccncc1 [Compound 8, (Z)-N'-(5-Nitro-2-oxoindolin-3-ylidene)isonicotinohydrazide]",157 µM
7,"O=C(N/N=C1\C(=O)N(c2ccccc2)c2ccccc21)c1ccncc1 [Compound 9, (Z)-N'-(2-Oxo-1-phenylindolin-3-ylidene)isonicotinohydrazide]",> 200 µM
8,"O=C(N/N=C1\C(=O)N(Cc2ccccc2)c2ccccc21)c1ccncc1 [Compound 10, (Z)-N'-(1-Benzyl-2-oxoindolin-3-ylidene)isonicotinohydrazide]",> 200 µM
9,"O=C(N/N=C1\C(=O)N(Cc2ccccc2)c2ccc(Cl)cc21)c1ccncc1 [Compound 11, (Z)-N'-(1-Benzyl-5-chloro-2-oxoindolin-3-ylidene)isonicotinohydrazide]",> 200 µM
10,"O=C(N/N=C1\C(=O)N(Cc2ccccc2)c2ccc(F)cc21)c1ccncc1 [Compound 12, (Z)-N'-(1-Benzyl-5-fluoro-2-oxoindolin-3-ylidene)isonicotinohydrazide]",> 200 µM
11,"Cc1ccc2c(c1)/C(=N/NC(=O)c1ccncc1)C(=O)N2Cc1ccccc1 [Compound 13, (Z)-N'-(1-Benzyl-5-methyl-2-oxoindolin-3-ylidene)isonicotinohydrazide]",> 200 µM
12,"O=C1Nc2ccccc2/C1=N/NC(=O)c1cccnc1 [Compound 14, (Z)-N'-(2-Oxoindolin-3-ylidene)nicotinohydrazide]",> 200 µM
13,"O=C1Nc2ccc(F)cc2/C1=N/NC(=O)c1ccco1 [Compound 15, (Z)-N'-(5-Fluoro-2-oxoindolin-3-ylidene)furan-2-carbhydrazide]",> 200 µM
14,"O=C1Nc2ccccc2/C1=N/NC(=O)c1ccc([N+](=O)[O-])o1 [Compound 16, (Z)-5-Nitro-N'-(2-Oxoindolin-3-ylidene)furan-2-carbohydrazide]",> 200 µM
15,"O=C1Nc2ccc(Cl)cc2/C1=N/NC(=O)c1cc2ccccc2o1 [Compound 17, (Z)-N'-(5-Chloro-2-oxoindolin-3-ylidene)benzofuran-2-carbohydrazide]",> 200 µM and 294 µM
16,"Cc1ccc2c(c1)/C(=N/NC(=O)c1cc3ccccc3o1)C(=O)N2 [Compound 18, (Z)-N'-(5-Methyl-2-oxoindolin-3-ylidene)benzofuran-2-carbohydrazide]",~50 µM and 56.3 µM
17,"O=C1Nc2ccc([N+](=O)[O-])cc2/C1=N/NC(=O)c1cc2ccccc2o1 [Compound 19, (Z)-N'-(5-Nitro-2-oxoindolin-3-ylidene)benzofuran-2-carbohydrazide]",89.9 µM
18,"O=C(N/N=C1\C(=O)N(c2ccccc2)c2ccccc21)c1cc2ccccc2o1 [Compound 20, (Z)-N'-(2-Oxo-1-phenylindolin-3-ylidene)benzofuran-2-carbohydrazide]",> 200 µM
19,"O=C1Nc2ccc(F)cc2/C1=N/NC(=O)c1cc2cc([N+](=O)[O-])ccc2o1 [Compound 21, (Z)-N'-(5-Fluoro-2-oxoindolin-3-ylidene)-5-nitrobenzofuran-2-carbhydrazide]",> 200 µM
20,"Cc1cccc(Nc2ccccc2C(=O)N/N=C2\C(=O)N(Cc3ccccc3)c3ccccc32)c1C [Compound 23, (Z)-N'-(1-Benzyl-2-oxoindolin-3-ylidene)-2-(2,3-dimethylphenylamino)benzohydrazide]",> 200 µM
21,"Cc1ccc2c(c1)/C(=N/NC(=O)c1ccccc1Nc1c(Cl)ccc(C)c1Cl)C(=O)N2 [Compound 24, (Z)-2-(2,6-Dichloro-3-methylphenylamino)-N'-(5-methyl-2-oxoindolin-3-ylidene)-benzohydrazide]",> 200 µM
22,"O=C1Nc2ccc(OC(F)(F)F)cc2/C1=N/NC(=O)c1ccccc1Nc1cccc(C(F)(F)F)c1 [Compound 25, (Z)-N'-(2-Oxo-5-(trifluoromethoxy)indolin-3-ylidene)-2-(3-(trifluoromethyl)phenylamino)-benzo-hydrazide]",> 200 µM
23,"CCn1cc(C(=O)N/N=C2\C(=O)Nc3ccc(F)cc32)c(=O)c2ccc(C)nc21 [Compound 26, (Z)-1-Ethyl-N'-(5-fluoro-2-oxoindolin-3-ylidene)-7-methyl-4-oxo-1,4-dihydro-1,8-naphthyridine-3-carbohydrazide]",> 200 µM

# Same assay, conditions: supercoiling of relaxed pBR322 DNA, 60 minutes at 37 °C, inhibitor 1.56 to 200 µM; read-out: Mtb wt gyrase IC50
row,SMILES,IC50 [µM]
1,"O=C1/C(=N\NC(=O)C23CC4CC(CC(C4)C2)C3)c2ccccc2N1c1ccccc1 [Compound 22, (Z)-N'-(2-oxo-1-phenylindolin-3-ylidene)adamantane-1-carbohydrazide]",> 200
